The source made the active and inactive calls.
Assays:
Bcl-2-related protein A1 [1] = target: T1, Bcl-2-related protein A1 (Mus musculus, UniProt Q07440); assay: small-molecule antagonists of Bfl-1/BH3 interaction – biochemical, TR-FRET, mouse Bfl-1, confirmation (AID 621);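 note: TR-FRET binding of GST-Bfl-1 to FITC-labelled Bid peptide via terbium antibody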
T1 sequence (Q07440 whole entry): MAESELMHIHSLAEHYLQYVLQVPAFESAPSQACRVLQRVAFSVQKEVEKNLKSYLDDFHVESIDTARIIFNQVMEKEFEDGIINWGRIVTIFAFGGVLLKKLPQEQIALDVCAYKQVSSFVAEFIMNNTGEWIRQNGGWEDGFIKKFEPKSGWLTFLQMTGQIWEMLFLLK

Bcl-2-related protein A1 [2] = target: T1, Bcl-2-related protein A1; assay: displacement of Bid BH3 peptide from Bfl-1 – biochemical, fluorescence polarization, FITC-Bid, mouse, primary screen (AID 432)
[3] = target: Heat shock protein HSP 90-alpha (Homo sapiens, UniProt P07900); assay: Luminescence-based dose response biochemical high throughput screening assay for inhibitors of the Heat Shock Protein 90 (HSP90). [Related pubchem assays: 1831 (Summary AID.), 1846 (Confirmation screen.), 1789 (Primary screen.)]
cells [4] = assay type: functional
[5] = toxicity toward HepG2 liver cells – cell-based, plate reader, cherry-pick, antagonist series, cytotoxicity control, dose response (AID 743416); assay type: functional
[6] = blockers of bursicon-stimulated LGR2 cAMP reporter – cell-based, HEK293, CRE-luciferase reporter, cherry pick, set 2, dose response (AID 743343); assay type: functional;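 note: transfected cells were stimulated with diluted bursicon conditioned medium after compound addition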
[7] = Luminescence Cell-Based Dose Confirmation HTS to Identify Inhibitors of Platelet Dense Granule Release. [Related pubchem assays: 1663 (Primary HTS), 1678 (Summary of Project)]; assay type: functional
[8] = blockade of melanocortin 4 receptor signaling – cell-based, plate reader, cherry pick, counter-screen for LGR2 antagonist project, dose response (AID 743444); assay type: functional;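 note: transfected HEK 293 cells stimulated with alpha-MSH peptide; potency of inhibitors of the alpha-MSH evoked signal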
[9] = viability loss in human Jurkat cells – cell-based, luminescence, cytotoxicity control for P. falciparum gametocyte viability project, dose response (AID 1117277); assay type: functional;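 note: potency reflects loss of cellular ATP meaning fewer viable cells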
BJ [10] = assay: cells; assay type: functional, cell-based; details: Homo sapiens
[11] = A549 cell cytotoxicity, dose response, cytotoxicity control, plate reader, cherry-pick, antagonist series (AID 743412); assay type: functional, cell-based
[12] = non-specific 3'UTR reporter inhibition in Clone20-Shn3RL – cell-based, Renilla luciferase, cherry-picked, counter-screen for Shn3 inhibitor project, dose response (AID 624133); assay type: functional
BJ [13] = assay: BJ-TERT-LT-ST fibroblast viability loss – cell-based, RAS-independent, luminescence, dose response (AID 1935); assay type: functional; details: Homo sapiens;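 note: BJ fibroblasts immortalized with TERT plus LT and ST oncogenes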
Paired box protein Pax-8 = Paired box protein Pax-8 (Homo sapiens, UniProt Q06710); assay: PAX8 transcriptional activity inhibition in RMG-I – RMG-I cells, luciferase, cherry-pick, dose response (AID 687027); assay type: functional, cell-based;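 note: luciferase reporter driven by Pax8 target thyroperoxidase promoter measured by SteadyGlo luminescence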
[14] = loss of viability in HepG2 cells – cell-based, CellTiter-Glo, cherry-picked, cytotoxicity control for Shn3 inhibitor project, dose response (AID 624134); assay type: functional
[15] = target: Luciferin 4-monooxygenase (Photinus pyralis, UniProt P08659); assay: inhibition of purified Photinus pyralis luciferase – biochemical, luminescence, dose response (AID 1891)
[16] = reduction of Shn3 3'UTR-driven luciferase in osteoblasts – cell-based, Clone20 osteoblasts, firefly luciferase, cherry-picked, dose response (AID 624132); assay type: functional;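 note: firefly luciferase luminescence from reporter carrying the Shn3 3'UTR in osteoblasts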
[17] = viability loss in HEK293 cells – cell-based, plate reader, cherry-picked samples, cytotoxicity control, dose response (AID 743446); assay type: functional
[18] = viability inhibitors of stage V gametocytes – luminescence, dose response (AID 1117278); assay type: functional, cell-based;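 note: gametocytes exposed to compound for 24 hours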
[19] = DRD fibroblast viability loss – cell-based, non-viral oncogenic, luminescence, dose response (AID 1934); assay type: functional; details: Homo sapiens
BJ [20] = assay: growth inhibition of engineered Ras-driven BJ cells – cell-based, alamar blue fluorescence, cherrypicked samples, dose response (AID 2631); assay type: functional; details: Homo sapiens;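 note: confirmatory dose-response assay in RAS-dependent BJ fibroblasts engineered with TERT, LT and ST, with cytotoxicity read by fluorescence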
BJ [21] = assay: BJ-TERT fibroblast viability loss – cell-based, RAS-independent, luminescence, dose response (AID 1933); assay type: functional; details: Homo sapiens
[22] = general cell-killing toxicity readout – plate reader, dry powder samples, cytotoxicity control for PAX8 inhibitor project, dose response (AID 743021); assay type: functional, cell-based
Cytochrome P450 1A2 = target: T2, Cytochrome P450 1A2 (Homo sapiens, UniProt P05177);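 note: PubChem cytochrome P450 panel assay, CYP1A2 panel member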
T2 sequence (P05177 whole entry): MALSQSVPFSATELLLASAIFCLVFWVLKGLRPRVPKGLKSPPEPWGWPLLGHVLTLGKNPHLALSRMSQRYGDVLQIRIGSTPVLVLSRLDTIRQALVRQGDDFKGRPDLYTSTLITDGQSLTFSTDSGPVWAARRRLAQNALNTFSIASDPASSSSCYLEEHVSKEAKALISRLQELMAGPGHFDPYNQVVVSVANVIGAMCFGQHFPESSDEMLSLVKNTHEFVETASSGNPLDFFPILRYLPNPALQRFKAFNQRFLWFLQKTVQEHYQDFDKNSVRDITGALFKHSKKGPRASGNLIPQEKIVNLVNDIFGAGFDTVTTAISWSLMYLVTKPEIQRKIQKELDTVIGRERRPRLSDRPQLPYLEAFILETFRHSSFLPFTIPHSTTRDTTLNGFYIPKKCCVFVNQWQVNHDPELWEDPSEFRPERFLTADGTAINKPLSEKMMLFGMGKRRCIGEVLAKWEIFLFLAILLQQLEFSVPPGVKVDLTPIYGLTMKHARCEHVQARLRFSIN

[23] = test system: Streptococcus sp. 'group A'; assay: Streptococcus pyogenes SK(-)GAS viability under kanamycin – luminescence, BacTiterGlo, confirmation, counter-screen for streptokinase expression inhibitor project, dose response (AID 1900); assay type: functional, organism-based
[24] = target: Voltage-gated inwardly rectifying potassium channel KCNH2 (Homo sapiens, UniProt Q12809); assay: concentration-dependent hERG rescue from blockers – cell-based, thallium flux, dose response (AID 2121); assay type: ADME
Streptococcus = assay: GAS UMAA2166 growth inhibition – luminescence, BacTiterGlo, counter-screen for streptokinase expression inhibitor project, dose response (AID 1915); assay type: functional, organism-based;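 note: potency for reduction of bacterial viability or growth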
[25] = target: G-protein coupled receptor 55 (Homo sapiens, UniProt Q9Y2T6); assay: inhibition of LPI-stimulated GPR55 beta-arrestin translocation – imaging, U2OS, beta-arrestin-GFP, LPI agonist, primary screen (AID 2013); assay type: functional;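 note: antagonist potency measured as reduced agonist-driven arrestin aggregation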
Cytochrome P450 3A4 = Cytochrome P450 3A4 (Homo sapiens, UniProt P08684);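 note: CYP3A4 tested as one member of a cytochrome P450 panel screen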
Streptokinase A = target: T3, Streptokinase A (Streptococcus pyogenes serotype M1, UniProt P10520); assay: viability-normalized secreted streptokinase activity reduction – plasminogen activation absorbance, OD405, dose response (AID 1914); assay type: functional, Streptococcus pyogenes M1 GAS;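 note: secreted streptokinase activity via plasminogen activation per viability signal from cell pellet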
T3 sequence (P10520 whole entry): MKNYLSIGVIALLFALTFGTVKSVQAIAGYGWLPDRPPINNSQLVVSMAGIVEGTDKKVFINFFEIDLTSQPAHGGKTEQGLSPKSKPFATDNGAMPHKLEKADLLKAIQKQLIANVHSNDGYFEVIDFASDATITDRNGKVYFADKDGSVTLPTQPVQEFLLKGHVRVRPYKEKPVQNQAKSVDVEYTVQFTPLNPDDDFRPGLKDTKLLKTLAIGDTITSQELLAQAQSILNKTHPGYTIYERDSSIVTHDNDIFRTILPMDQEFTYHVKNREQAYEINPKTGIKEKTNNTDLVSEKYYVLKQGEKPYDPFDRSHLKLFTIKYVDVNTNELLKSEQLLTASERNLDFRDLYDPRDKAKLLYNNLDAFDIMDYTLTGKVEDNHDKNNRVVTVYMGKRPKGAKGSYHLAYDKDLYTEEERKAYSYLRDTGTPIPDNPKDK

Cytochrome P450 2C19 = Cytochrome P450 2C19 (Homo sapiens, UniProt P33261); assay: Cytochrome panel assay with activity outcomes. Panel member name: p450-cyp2c19 Compounds with AC50 equal or less than 10 uM are considered active; assay type: functional; details: read-out: AC50
cells [26] = assay type: functional, cell-based
cells [27] = assay type: functional, cell-based; remark: listed apart in the source
[28] = target: E3 ubiquitin-protein ligase Mdm2 (Homo sapiens, UniProt Q00987); assay: MDM2-luc reporter signal enhancers, multi-concentration potency testing, MDM2 ubiquitin-protein ligase inhibitor program, whole-cell format, luminescence detection, 384-well microplate (AID 1394); assay type: functional;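 note: MDM2 E3 inhibitors raise luminescence so EC50 is for signal enhancement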
Fatty acid synthase [29] = target: T4, Fatty acid synthase (Homo sapiens, UniProt P49327); assay: inhibition of human FAS-TE enzyme activity – biochemical, kinetic fluorescence intensity, dose response (AID 624326); assay type: functional;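 note: rate of fluorescence rise from hydrolysis of a fluorogenic O-methyl fluorescein ester substrate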
Fatty acid synthase [30] = target: T4, Fatty acid synthase; assay: inhibition of human FAS-TE enzyme activity – biochemical, endpoint fluorescence intensity, uHTS hits, dose response (AID 624327); assay type: functional;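 note: fluorescence from hydrolysis of an O-methyl fluorescein acyl ester substrate by the enzyme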

T4 sequence (P49327 whole entry): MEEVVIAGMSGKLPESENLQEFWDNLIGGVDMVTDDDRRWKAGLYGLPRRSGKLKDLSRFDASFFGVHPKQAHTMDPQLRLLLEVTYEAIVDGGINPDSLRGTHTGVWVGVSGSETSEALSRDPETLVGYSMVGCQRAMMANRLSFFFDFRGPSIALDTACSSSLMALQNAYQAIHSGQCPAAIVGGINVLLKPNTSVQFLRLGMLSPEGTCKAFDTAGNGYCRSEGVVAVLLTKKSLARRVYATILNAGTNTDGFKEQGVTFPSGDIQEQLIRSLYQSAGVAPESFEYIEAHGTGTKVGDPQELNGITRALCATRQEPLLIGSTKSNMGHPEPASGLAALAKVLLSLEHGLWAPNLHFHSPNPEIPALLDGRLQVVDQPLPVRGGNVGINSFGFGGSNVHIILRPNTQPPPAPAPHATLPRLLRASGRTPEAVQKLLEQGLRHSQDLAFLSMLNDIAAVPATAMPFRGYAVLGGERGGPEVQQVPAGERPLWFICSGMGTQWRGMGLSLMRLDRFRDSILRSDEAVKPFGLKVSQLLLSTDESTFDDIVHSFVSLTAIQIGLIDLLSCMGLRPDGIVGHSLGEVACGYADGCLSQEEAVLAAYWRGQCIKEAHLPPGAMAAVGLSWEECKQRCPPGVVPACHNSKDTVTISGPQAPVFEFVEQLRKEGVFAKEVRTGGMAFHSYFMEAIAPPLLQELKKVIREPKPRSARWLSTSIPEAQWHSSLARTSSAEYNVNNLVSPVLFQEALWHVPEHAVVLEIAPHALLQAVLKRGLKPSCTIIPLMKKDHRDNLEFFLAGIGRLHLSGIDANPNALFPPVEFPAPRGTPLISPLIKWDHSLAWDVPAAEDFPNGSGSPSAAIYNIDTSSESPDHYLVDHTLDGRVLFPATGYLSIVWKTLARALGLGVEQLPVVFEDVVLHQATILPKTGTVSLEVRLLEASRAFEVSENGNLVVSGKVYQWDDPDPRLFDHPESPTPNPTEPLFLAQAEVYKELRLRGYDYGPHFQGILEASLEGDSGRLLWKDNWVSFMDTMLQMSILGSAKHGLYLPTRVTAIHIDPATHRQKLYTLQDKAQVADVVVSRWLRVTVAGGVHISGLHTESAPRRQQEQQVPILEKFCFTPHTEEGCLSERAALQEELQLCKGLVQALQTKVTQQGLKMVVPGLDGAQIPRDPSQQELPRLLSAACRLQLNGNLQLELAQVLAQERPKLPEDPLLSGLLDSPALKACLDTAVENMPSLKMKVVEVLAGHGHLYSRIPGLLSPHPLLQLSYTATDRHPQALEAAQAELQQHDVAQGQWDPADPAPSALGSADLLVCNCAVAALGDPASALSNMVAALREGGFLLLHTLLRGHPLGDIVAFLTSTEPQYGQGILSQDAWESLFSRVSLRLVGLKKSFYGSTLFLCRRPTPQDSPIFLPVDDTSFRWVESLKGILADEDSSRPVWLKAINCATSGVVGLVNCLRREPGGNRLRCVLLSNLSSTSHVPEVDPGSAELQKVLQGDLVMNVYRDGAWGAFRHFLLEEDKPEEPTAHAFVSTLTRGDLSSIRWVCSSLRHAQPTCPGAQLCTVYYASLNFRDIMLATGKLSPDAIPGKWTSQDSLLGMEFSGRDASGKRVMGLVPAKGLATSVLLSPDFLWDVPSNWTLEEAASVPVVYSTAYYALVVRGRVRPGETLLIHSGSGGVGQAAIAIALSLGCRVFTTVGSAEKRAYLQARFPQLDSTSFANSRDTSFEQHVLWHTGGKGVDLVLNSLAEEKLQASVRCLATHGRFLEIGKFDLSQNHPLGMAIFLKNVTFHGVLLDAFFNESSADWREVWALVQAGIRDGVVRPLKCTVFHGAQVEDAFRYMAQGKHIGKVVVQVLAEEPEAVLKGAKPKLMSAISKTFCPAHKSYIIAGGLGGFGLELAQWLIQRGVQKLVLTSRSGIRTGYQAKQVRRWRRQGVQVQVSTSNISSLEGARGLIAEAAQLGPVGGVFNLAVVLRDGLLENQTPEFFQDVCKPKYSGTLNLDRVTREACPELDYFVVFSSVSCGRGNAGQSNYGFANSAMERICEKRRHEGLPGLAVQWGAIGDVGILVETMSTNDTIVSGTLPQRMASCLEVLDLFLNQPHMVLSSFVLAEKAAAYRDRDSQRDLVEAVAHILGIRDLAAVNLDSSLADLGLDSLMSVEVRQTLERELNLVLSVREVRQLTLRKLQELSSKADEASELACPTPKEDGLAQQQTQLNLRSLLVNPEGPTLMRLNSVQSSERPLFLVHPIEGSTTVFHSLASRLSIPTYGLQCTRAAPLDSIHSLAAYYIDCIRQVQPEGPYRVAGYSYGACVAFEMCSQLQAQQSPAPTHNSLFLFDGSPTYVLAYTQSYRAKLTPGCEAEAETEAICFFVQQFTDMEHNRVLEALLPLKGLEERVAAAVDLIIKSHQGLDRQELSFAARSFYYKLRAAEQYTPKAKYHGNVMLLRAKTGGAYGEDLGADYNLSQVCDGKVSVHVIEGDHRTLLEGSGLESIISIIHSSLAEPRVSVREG
E3 ubiquitin-protein ligase Mdm2, sequence (Q00987 whole entry): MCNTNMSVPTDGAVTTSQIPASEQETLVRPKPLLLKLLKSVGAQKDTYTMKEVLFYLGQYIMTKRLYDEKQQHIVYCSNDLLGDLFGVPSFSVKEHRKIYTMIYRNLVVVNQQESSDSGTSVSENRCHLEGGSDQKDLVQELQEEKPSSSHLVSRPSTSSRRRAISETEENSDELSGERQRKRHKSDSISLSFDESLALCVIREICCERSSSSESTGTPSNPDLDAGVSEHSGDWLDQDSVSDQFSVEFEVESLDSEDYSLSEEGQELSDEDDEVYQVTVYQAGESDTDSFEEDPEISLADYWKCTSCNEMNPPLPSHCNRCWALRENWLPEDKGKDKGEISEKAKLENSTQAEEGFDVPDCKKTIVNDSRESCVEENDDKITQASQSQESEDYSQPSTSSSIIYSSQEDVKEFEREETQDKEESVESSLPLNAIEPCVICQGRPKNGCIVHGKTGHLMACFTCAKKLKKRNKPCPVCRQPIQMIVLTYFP
Cytochrome P450 2C19, sequence (P33261 whole entry): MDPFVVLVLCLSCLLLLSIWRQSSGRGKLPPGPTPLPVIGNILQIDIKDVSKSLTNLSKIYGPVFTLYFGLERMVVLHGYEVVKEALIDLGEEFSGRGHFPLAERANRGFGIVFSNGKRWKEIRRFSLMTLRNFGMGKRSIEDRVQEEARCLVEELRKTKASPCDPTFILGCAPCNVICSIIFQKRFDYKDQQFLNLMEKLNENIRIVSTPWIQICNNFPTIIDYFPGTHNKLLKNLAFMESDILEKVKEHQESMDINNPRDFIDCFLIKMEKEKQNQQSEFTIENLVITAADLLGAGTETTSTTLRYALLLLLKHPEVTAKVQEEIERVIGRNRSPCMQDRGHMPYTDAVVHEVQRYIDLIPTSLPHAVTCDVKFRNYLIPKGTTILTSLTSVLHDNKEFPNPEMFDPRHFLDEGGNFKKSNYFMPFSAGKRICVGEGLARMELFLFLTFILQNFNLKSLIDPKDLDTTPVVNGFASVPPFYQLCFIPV
G-protein coupled receptor 55, sequence (Q9Y2T6 whole entry): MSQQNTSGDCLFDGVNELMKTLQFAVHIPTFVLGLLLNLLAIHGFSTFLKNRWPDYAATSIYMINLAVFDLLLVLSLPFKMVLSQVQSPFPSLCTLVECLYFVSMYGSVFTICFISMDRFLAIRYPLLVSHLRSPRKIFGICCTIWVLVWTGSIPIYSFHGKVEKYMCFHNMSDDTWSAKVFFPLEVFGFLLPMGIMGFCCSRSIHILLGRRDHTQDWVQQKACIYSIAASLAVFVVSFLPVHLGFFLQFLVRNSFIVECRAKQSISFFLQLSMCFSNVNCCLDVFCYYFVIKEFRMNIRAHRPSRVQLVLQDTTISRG
Luciferin 4-monooxygenase, sequence (P08659 whole entry): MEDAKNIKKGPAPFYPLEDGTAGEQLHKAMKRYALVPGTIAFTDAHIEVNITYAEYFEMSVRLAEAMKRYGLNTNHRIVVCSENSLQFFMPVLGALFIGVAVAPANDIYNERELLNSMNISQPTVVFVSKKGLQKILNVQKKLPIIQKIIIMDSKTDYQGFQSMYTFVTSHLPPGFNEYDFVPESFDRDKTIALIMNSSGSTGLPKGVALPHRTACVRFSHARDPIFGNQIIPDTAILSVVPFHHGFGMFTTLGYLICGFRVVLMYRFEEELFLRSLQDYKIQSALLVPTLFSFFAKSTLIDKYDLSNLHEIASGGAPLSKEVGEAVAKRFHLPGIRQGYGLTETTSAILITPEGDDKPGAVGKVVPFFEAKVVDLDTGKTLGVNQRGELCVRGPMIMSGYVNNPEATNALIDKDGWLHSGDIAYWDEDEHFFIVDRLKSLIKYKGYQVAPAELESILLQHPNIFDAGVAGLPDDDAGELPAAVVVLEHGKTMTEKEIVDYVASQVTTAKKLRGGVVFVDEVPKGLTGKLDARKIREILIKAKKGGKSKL
Cytochrome P450 3A4, sequence (P08684 whole entry): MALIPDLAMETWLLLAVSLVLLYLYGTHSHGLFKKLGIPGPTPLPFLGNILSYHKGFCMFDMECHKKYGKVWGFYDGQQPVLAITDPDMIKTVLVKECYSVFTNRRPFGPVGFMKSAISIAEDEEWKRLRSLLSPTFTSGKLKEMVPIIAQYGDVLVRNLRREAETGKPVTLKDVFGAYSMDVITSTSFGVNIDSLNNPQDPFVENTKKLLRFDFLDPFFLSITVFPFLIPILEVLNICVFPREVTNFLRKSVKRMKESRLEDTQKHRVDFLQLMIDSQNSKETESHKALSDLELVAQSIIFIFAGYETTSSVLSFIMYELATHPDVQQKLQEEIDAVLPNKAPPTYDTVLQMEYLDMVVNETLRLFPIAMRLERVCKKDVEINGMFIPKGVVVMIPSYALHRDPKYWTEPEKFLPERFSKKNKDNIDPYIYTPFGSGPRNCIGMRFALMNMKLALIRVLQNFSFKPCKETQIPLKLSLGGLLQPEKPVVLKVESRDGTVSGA

Cc1nn(C)c(C)c1NC(=O)CSc1nc(-c2ccccc2F)nc2c1cnn2-c1ccccc1
IC50 (Bcl-2-related protein A1 [1]): > 100 µM (not active)
IC50 (Bcl-2-related protein A1 [2]): > 100 µM (not active)

CCOC(=O)c1csc(COc2ccc(OC)cc2)n1
IC50 [3]: 8.03 µM (active)
IC50 (cells [4]): 47.7 µM (active)

O=c1c2ccccc2cnn1-c1nc2ccccc2[nH]1
AC50 [5]: 8.61 µM (active)
AC50 [6]: 0.275 µM (active)
EC50 [7]: 0.144 µM (active)
AC50 [8]: 0.288 µM (active)
IC50 [9]: 3.98 µM (active)
EC50 (BJ [10]): 4.94 µM (active)
AC50 [11]: 2.6 µM (active)
AC50 [12]: 27.2 µM (active)
EC50 (BJ [13]): 4.79 µM (active)
AC50 (Paired box protein Pax-8): 1.65 µM (active)
AC50 [14]: 12.1 µM (active)
EC50 [15]: 1.16 µM (active)
AC50 [16]: 1.33 µM (active)
AC50 [17]: 2.23 µM (active)
IC50 [18]: 15.2 µM (inactive)
EC50 [19]: 5.22 µM (active)
EC50 (BJ [20]): > 133 µM (inactive)
EC50 (BJ [21]): 5.15 µM (active)
AC50 [22]: 3.39 µM (active)

COc1ccc(/C=C2/SC(N/N=C3\CC4CCC3(C)C4(C)C)=NC2=O)cc1 (stereo unspecified)
AC50 (Cytochrome P450 1A2): 14.1 µM (inconclusive)
EC50 [23]: 3.92 µM (active)
EC50 [24]: 0.22 µM (active)
EC50 (Streptococcus): > 150 µM (not active)
IC50 [25]: 6 µM (active)
AC50 (Cytochrome P450 3A4): 12.6 µM (inconclusive)
EC50 (Streptokinase A): > 150 µM (not active)
AC50 (Cytochrome P450 2C19): 20 µM (inconclusive)

COCCn1/c(=N/C(=O)c2ccc(S(=O)(=O)N3CCCc4ccccc43)cc2)sc2cc(S(C)(=O)=O)ccc21
EC50 (cells [26]): 298 µM (active)
EC50 (cells [27]): > 350 µM (not active)
EC50 [28]: 1.03 µM (not active)
IC50 (Fatty acid synthase [29]): 64.5 µM (inactive)
IC50 (Fatty acid synthase [30]): 45.9 µM (inactive)
